# Measured values as given in patent US7625895B2, “Diphenyl-dihydro-imidazopyridinones” (Hoffmann-Le Roche Inc., priority 2007, dated 2009).
# Biological target: interaction between p53 and MDM2 proteins (recombinant GST-tagged MDM2 / p53-peptide) (Homo sapiens, UniProt Q00987)
# Assay: HTRF assay of inhibition of the p53-MDM2 interaction (GST-MDM2 binding to biotinylated p53 peptide)
# Details: 90 nM biotinylated p53 peptide, 160 ng/ml GST-MDM2, 37° C. 1 h
# Method: The ability of the compounds to inhibit the interaction between p53 and MDM2 proteins was measured by an HTRF (homogeneous time-resolved fluorescence) assay in which recombinant GST-tagged MDM2 binds to a peptide that resembles the MDM2-interacting region of p53 (Lane et al.). Binding of GST-MDM2 protein and p53-peptide (biotinylated on its N-terminal end) is registered by the FRET (fluorescence resonance energy transfer) between Europium (Eu)-labeled anti-GST antibody and streptavidin-conjugated Allophycocyanin (APC).
# Test is performed in black flat-bottom 384-well plates (Costar) in a total volume of […] containing: 90 nM biotinylated peptide, 160 ng/ml GST-MDM2, 20 nM streptavidin-APC (PerkinElmerWallac), 2 nM Eu-labeled anti-GST-antibody (PerkinElmerWallac) 0.2% bovine serum albumin (BSA), 1 mM dithiothreitol (DTT) and 20 mM […] (TBS) buffer as follows: Add 10 μL of GST-MDM2 (640 ng/ml working solution) in reaction buffer to each well. Add 10 μL diluted compounds (1:5 dilution in reaction buffer) to each well mix by shaking. Add 20 μL biotinylated p53 peptide (180 nM working solution) in reaction buffer to each well and mix on shaker. Incubate at 37° C. for 1 h. Add 20 μL streptavidin-APC and Eu-anti-GST antibody mixture (6 nM Eu-anti-GST and 60 nM streptavidin-APC working solution) in TBS buffer with 0.2% BSA, shake at room temperature for 30 minutes and read using a TRF-capable plate reader at 665 and 615 nm (Victor 5, Perkin ElmerWallac). If not specified, the reagents were purchased from Sigma Chemical Co.
# interaction between p53 and MDM2 proteins (recombinant GST-tagged MDM2 / p53-peptide), sequence (Q00987 whole entry): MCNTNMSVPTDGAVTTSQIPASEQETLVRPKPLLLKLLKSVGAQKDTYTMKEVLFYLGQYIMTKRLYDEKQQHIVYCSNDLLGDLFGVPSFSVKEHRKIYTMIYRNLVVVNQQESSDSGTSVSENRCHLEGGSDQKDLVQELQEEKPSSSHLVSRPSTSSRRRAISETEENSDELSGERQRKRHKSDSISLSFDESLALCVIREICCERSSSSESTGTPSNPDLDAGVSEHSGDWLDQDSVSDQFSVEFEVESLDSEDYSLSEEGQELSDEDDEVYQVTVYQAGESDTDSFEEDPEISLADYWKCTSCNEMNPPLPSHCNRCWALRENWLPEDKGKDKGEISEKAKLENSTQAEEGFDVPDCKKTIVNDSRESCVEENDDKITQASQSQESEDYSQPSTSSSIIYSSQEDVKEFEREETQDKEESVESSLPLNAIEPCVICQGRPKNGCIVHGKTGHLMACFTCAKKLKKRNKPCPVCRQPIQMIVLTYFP
row,SMILES,IC50 [nM]
1,"O=c1cccc2n1[C@@H](c1ccc(Cl)cc1)[C@@H](c1ccc(Cl)cc1)N2S(=O)(=O)c1ccsc1 (racemic) [Example 10, rac-cis-2,3-Bis-(4-chloro-phenyl)-1-(thiophene-3-sulfonyl)-2,3-dihydro-1H-imidazo[1,2-a]pyridin-5-one]",710
2,"O=C(CN1CCN(C(=O)c2ccc3n(c2=O)[C@@H](c2ccc(Cl)cc2)[C@@H](c2ccc(Cl)cc2)N3S(=O)(=O)c2ccccc2F)CC1)N1CCOCC1 (racemic) [Example 51, rac-cis-2,3-Bis-(4-chloro-phenyl)-1-(2-fluoro-benzenesulfonyl)-6-[4-(2-morpholin-4-yl-2-oxo-ethyl)-piperazine-1-carbonyl]-2,3-dihydro-1H-imidazo[1,2-a]pyridin-5-one]",710
3,"COC(=O)c1cccc(S(=O)(=O)N2c3ccc(C(=O)N4CCN(CC(=O)N5CCOCC5)CC4)c(=O)n3[C@@H](c3ccc(Cl)cc3)[C@H]2c2ccc(Cl)cc2)c1 (racemic) [Example 62, rac-3-{cis-2,3-Bis-(4-chloro-phenyl)-6-[4-(2-morpholin-4-yl-2-oxo-ethyl)-piperazine-1-carbonyl]-5-oxo-2,3-dihydro-5H-imidazo[1,2-a]pyridine-1-sulfonyl}-benzoic acid methyl ester]",470
4,"COC(=O)c1cccc(S(=O)(=O)N2c3ccc(C(=O)N4CCN(C)CC4)c(=O)n3[C@@H](c3ccc(Cl)cc3)[C@H]2c2ccc(Cl)cc2)c1 (racemic) [Example 63, rac-3-[cis-2,3-Bis-(4-chloro-phenyl)-6-(4-methyl-piperazine-1-carbonyl)-5-oxo-2,3-dihydro-5H-imidazo[1,2-a]pyridine-1-sulfonyl]-benzoic acid methyl ester]",460
5,"COC(=O)c1cccc(S(=O)(=O)N2c3ccc(C(=O)N4CCN(CCn5ccnc5)CC4)c(=O)n3[C@@H](c3ccc(Cl)cc3)[C@H]2c2ccc(Cl)cc2)c1 (racemic) [Example 66, rac-3-{cis-2,3-Bis-(4-chloro-phenyl)-6-[4-(2-imidazol-1-yl-ethyl)-piperazine-1-carbonyl]-5-oxo-2,3-dihydro-5H-imidazo[1,2-a]pyridine-1-sulfonyl}-benzoic acid methyl ester]",670
6,"O=C(O)c1cccc(S(=O)(=O)N2c3cccc(=O)n3[C@@H](c3ccc(Cl)cc3)[C@H]2c2ccc(Cl)cc2)c1 (racemic) [Example 82, rac-3-[cis-2,3-Bis-(4-chloro-phenyl)-5-oxo-2,3-dihydro-5H-imidazo[1,2-a]pyridine-1-sulfonyl]-benzoic acid]",770
7,"N#Cc1cc(S(=O)(=O)N2c3cccc(=O)n3[C@@H](c3ccc(Cl)cc3)[C@H]2c2ccc(Cl)cc2)ccc1F (single isomer, unassigned) [Example 84, 5-[(2R*,3S*)-2,3-Bis-(4-chloro-phenyl)-5-oxo-2,3-dihydro-5H-imidazo[1,2-a]pyridine-1-sulfonyl]-2-fluoro-benzonitrile]",500
8,"N#Cc1cc(S(=O)(=O)N2c3cccc(=O)n3[C@@H](c3ccc(Cl)cc3)[C@H]2c2ccc(Cl)cc2)ccc1F (single isomer, unassigned) [Example 85, 5-[(2R*,3S*)-2,3-Bis-(4-chloro-phenyl)-5-oxo-2,3-dihydro-5H-imidazo[1,2-a]pyridine-1-sulfonyl]-2-fluoro-benzonitrile]",220
9,"N#Cc1cccc(S(=O)(=O)N2c3ccc(C(=O)N4CCOCC4)c(=O)n3[C@@H](c3ccc(Cl)cc3)[C@H]2c2ccc(Cl)cc2)c1 (single isomer, unassigned) [Example 91, 3-[2R*,3S*-bis-(4-chloro-phenyl)-6-(morpholine-4-carbonyl)-5-oxo-2,3-dihydro-5H-imidazo[1,2-a]pyridine-1-sulfonyl]-benzonitrile]",1600
10,"N#Cc1cccc(S(=O)(=O)N2c3ccc(C(=O)N4CCOCC4)c(=O)n3[C@H](c3ccc(Cl)cc3)[C@@H]2c2ccc(Cl)cc2)c1 (single isomer, unassigned) [Example 92, 3-[2R*,3S*-bis-(4-chloro-phenyl)-6-morpholine-4-carbonyl)-5-oxo-2,3-dihydro-5H-imidazo[1,2-a]pyridine-1-sulfonyl]-benzonitrile]",690
